# Test results from ChEMBL document CHEMBL1926609, “Synthesis of 9-phosphonoalkyl and 9-phosphonoalkoxyalkyl purines: evaluation of their ability to act as inhibitors of Plasmodium falciparum, Plasmodium vivax and human hypoxanthine-guanine-(xanthine) phosphoribosyltransferases” (Bioorg Med Chem, 2012).
# Columns and labels:
# [1] = target: T1, Hypoxanthine-guanine phosphoribosyltransferase (Homo sapiens, UniProt P00492); experiment: Inhibition of human HGPRT
# T1 sequence (P00492 whole entry): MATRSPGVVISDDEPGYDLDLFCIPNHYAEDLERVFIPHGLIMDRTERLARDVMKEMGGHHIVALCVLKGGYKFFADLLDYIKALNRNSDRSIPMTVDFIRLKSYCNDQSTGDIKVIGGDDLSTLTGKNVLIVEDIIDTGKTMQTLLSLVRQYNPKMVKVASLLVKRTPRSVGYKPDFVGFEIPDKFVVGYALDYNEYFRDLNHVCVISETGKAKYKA
# [2] = Inhibition of Plasmodium falciparum HGXPRT
# [3] = Inhibition of Plasmodium vivax HGPRT
Ki [1],SMILES,Ki [2],Ki [3]
3 µM,Nc1nc2c(ncn2COCCCP(=O)(O)O)c(=O)[nH]1,6.7 µM,1 µM
31 µM,Nc1nc(O)c2ncn(COCCP(=O)(O)O)c2n1,5 µM,24 µM
0.4 µM,Nc1nc(O)c2ncn(COCCCCP(=O)(O)O)c2n1,200 µM,> 100 µM
5 µM,Nc1nc(O)c2ncn(CCCCCCCP(=O)(O)O)c2n1,10 µM,–
56 µM,O=c1[nH]cnc2c1ncn2COCCP(=O)(O)O,25 µM,30 µM
21 µM,Nc1nc(O)c2ncn(CCCCP(=O)(O)O)c2n1,> 100 µM,> 100 µM
> 100 µM,Nc1nc2c(ncn2CCCP(=O)(O)O)c(=O)[nH]1,> 100 µM,> 100 µM
28 µM,O=c1[nH]cnc2c1ncn2COCCCCP(=O)(O)O,29 µM,–
0.5 µM,Nc1nc(O)c2ncn(CCCCCP(=O)(O)O)c2n1,2 µM,6 µM

# Second part, the molecule before the results:
SMILES,Ki [1],Ki [2],Ki [3]
O=c1[nH]cnc2c1ncn2CCCCCCCP(=O)(O)O,> 100 µM,> 100 µM,> 100 µM
Nc1nc2c(ncn2CCCCCCP(=O)(O)O)c(=O)[nH]1,0.5 µM,> 100 µM,> 100 µM
O=c1[nH]cnc2c1ncn2CCP(=O)(O)O,3.4 µM,2.2 µM,> 100 µM
O=P(O)(O)CCCCCn1cnc2c(O)ncnc21,> 100 µM,21 µM,–
Nc1nc2c(ncn2CP(=O)(O)O)c(=O)[nH]1,> 100 µM,> 100 µM,> 100 µM
Nc1nc2c(ncn2CCP(=O)(O)O)c(=O)[nH]1,> 100 µM,> 100 µM,> 100 µM
O=c1[nH]cnc2c1ncn2CP(=O)(O)O,1.9 µM,> 100 µM,> 100 µM
O=c1[nH]cnc2c1ncn2CCCCP(=O)(O)O,> 100 µM,> 100 µM,> 100 µM
O=c1[nH]cnc2c1ncn2CCCCCCP(=O)(O)O,77 µM,97 µM,–
O=c1[nH]cnc2c1ncn2CCCP(=O)(O)O,> 100 µM,> 100 µM,> 100 µM
